pIC50: −log10 of the molar value. Structures can show the parent of a compound that is named as a salt.
System: leukotriene pathway in human whole blood (LTB4 levels)
Assay: Human whole blood assay (A23187-stimulated LTB4)
Format: cell-based
Details: Homo sapiens, human whole blood diluted 1:1, A23187-stimulated; read-out: LTB4 IC50 1:1
Method: The ability of the compounds of the present invention to treat a FLAP-mediated disease and/or disorder, or associated symptoms or complications thereof, was determined using the following procedures. Binding assay data represent the average value obtained from two different assay plates, with samples run in duplicate on each plate. Human whole blood assay data represent a single replicate on an assay plate using whole blood from at least one healthy donor.
An in vitro cellular assay was performed using human whole blood collected in heparin-containing tubes, which was used to test the ability of compounds to modulate the leukotriene pathway in human whole blood. The blood was diluted 1:1 in RPMI medium, pre-incubated for 15 min at 37° Celsius with test compounds at various concentrations, and then stimulated with calcium ionophore, A23187 (7 μg/mL), for 30 min at 37° Celsius. The samples were then centrifuged and plasma was removed. The plasma was diluted in assay buffer and LTB4 levels were measured using a commercial kit (Enzo Life Sciences). The concentration of each compound that was required for half-maximal inhibition (modulation) of recombinant enzyme activity (IC50) was calculated by a 4-parameter equation using the program GraphPad Prism (GraphPad software).

Q: With Nc1ncc(-c2ccc(-c3ccccc3S(=O)(=O)N3CCCC(O)C3)cc2F)cc1F (racemic) [Example 668, (racemic)-1-((4′-(6-Amino-5-fluoropyridin-3-yl)-3′-fluoro-[1,1′-biphenyl]-2-yl)sulfonyl)piperidin-3-ol] as the molecule, how does the pIC50 read?
A: 6.72

Q: How did the pIC50 turn out when Nc1cnc(-c2ccc(-c3cccnc3S(=O)(=O)C3CCNC3)cc2F)cn1 (racemic) [Example 803, racemic 5-(2-Fluoro-4-(2-(pyrrolidin-3-ylsulfonyl)pyridin-3-yl)phenyl)pyrazin-2-amine hydrochloride] was run?
A: 6.62

Q: With CCC(C)S(=O)(=O)c1ncccc1-c1ccc(-c2cnc(N)nc2)c(F)c1 (racemic) [Example 813, racemic 5-(4-(2-(sec-Butylsulfonyl)pyridin-3-yl)-2-fluorophenyl)pyrimidin-2-amine formate] as the molecule, how does the pIC50 read?
A: 7.12

Q: With CCC(C)S(=O)(=O)c1ncccc1-c1ccc(-c2cnc(N)cn2)c(F)c1 (racemic) [Example 814, racemic 5-(4-(2-(sec-Butylsulfonyl)pyridin-3-yl)-2-fluorophenyl)pyrazin-2-amine formate] as the molecule, how does the pIC50 read?
A: 7.68

Q: CC(O)CNS(=O)(=O)c1ccccc1-c1ccc(-c2cnc(N)c(C#N)n2)c(F)c1 (stereo in doubt) [Example 415, 4′-(5-Amino-6-cyanopyrazin-2-yl)-3′-fluoro-N-[(2R)-2-hydroxypropyl]biphenyl-2-sulfonamide] was tested. Which pIC50 did it give?
A: 7.43

Same assay, conditions: Homo sapiens, human whole blood diluted 1:1 in RPMI, A23187-stimulated LTB4; read-out: LTB4 IC50 1:1

Q: With CN1CCN([C@@H]2CN(S(=O)(=O)c3ccccc3-c3ccc(-c4cnc(N)cn4)c(F)c3)C[C@H]2O)CC1 (racemic) [Example 188, Racemic-1-{[4′-(5-Aminopyrazin-2-yl)-3′-fluorobiphenyl-2-yl]sulfonyl}-4-(4-methylpiperazin-1-yl)-pyrrolidin-3-ol trifluoroacetic acid salt] as the molecule, how does the pIC50 read?
A: 5.93

Q: With CC(NS(=O)(=O)c1ccccc1-c1ccc(-c2cnc3[nH]ccc3n2)c(F)c1)C(F)(F)F (racemic) [Example 376, racemic 3′-Fluoro-4′-(5H-pyrrolo[2,3-b]pyrazin-2-yl)-N-(2,2,2-trifluoro-1-methylethyl)biphenyl-2-sulfonamide] as the molecule, how does the pIC50 read?
A: 8.00

Q: With Nc1cnc(-c2ccc(-c3ccccc3S(=O)(=O)N[C@H]3CCCCNC3=O)cc2F)cn1 (stereo in doubt) [Example 28, (S)-4′-(5-Aminopyrazin-2-yl)-3′-fluoro-N-[(3S)-2-oxoazepan-3-yl]biphenyl-2-sulfonamide] as the molecule, how does the pIC50 read?
A: 6.49

Q: How did the pIC50 turn out when CC(CO)NS(=O)(=O)c1ccccc1-c1ccc(-c2cnc(N)cn2)c(F)c1 (stereo in doubt) [Example 32, 4′-(5-Aminopyrazin-2-yl)-3′-fluoro-N-[(1S)-2-hydroxy-1-methylethyl]biphenyl-2-sulfonamide] was run?
A: 7.52

Q: Nc1cnc(-c2ccc(-c3ccccc3S(=O)(=O)NC3Cc4ccccc4C3)cc2F)cn1 [Example 21, 4′-(5-Aminopyrazin-2-yl)-N-(2,3-dihydro-1H-inden-2-yl)-3′-fluorobiphenyl-2-sulfonamide] was tested. Which pIC50 did it give?
A: 7.46

Q: With C[C@H](NS(=O)(=O)c1ccccc1-c1ccc(-c2cnc(N)cn2)c(F)c1)c1ccccc1 [Example 24, (R)-4′-(5-Aminopyrazin-2-yl)-3′-fluoro-N-[(1R)-1-phenylethyl]biphenyl-2-sulfonamide] as the molecule, how does the pIC50 read?
A: 7.32

Q: C[C@@H](CO)NS(=O)(=O)c1ccccc1-c1ccc(-c2cnc(N)cn2)c(F)c1 [Example 25, (R)-4′-(5-Aminopyrazin-2-yl)-3′-fluoro-N-[(1R)-2-hydroxy-1-methylethyl]biphenyl-2-sulfonamide] was tested. Which pIC50 did it give?
A: 7.64

Q: With Nc1cnc(-c2ccc(-c3ccccc3S(=O)(=O)NCCCO)cc2F)cn1 [Example 80, 4′-(5-Aminopyrazin-2-yl)-3′-fluoro-N-(3-hydroxypropyl)biphenyl-2-sulfonamide] as the molecule, how does the pIC50 read?
A: 7.06

Q: How did the pIC50 turn out when Nc1cnc(-c2ccc(-c3ccccc3S(=O)(=O)N3CC[C@@H](N)C3)cc2F)cn1 [Example 92, (R)-5-(2′-((3-Aminopyrrolidin-1-yl)sulfonyl)-3-fluoro-[1,1′-biphenyl]-4-yl)pyrazin-2-amine] was run?
A: 6.65

Q: How did the pIC50 turn out when Nc1cnc(-c2ccc(-c3ccccc3S(=O)(=O)N3CC[C@H](N)C3)cc2F)cn1 [Example 93, (S)-5-(2′-((3-Aminopyrrolidin-1-yl)sulfonyl)-3-fluoro-[1,1′-biphenyl]-4-yl)pyrazin-2-amine] was run?
A: 6.89

Q: How did the pIC50 turn out when CS(=O)(=O)NS(=O)(=O)c1ccccc1-c1ccc(-c2cnc(N)cn2)c(F)c1 [Example 96, 4′-(5-Aminopyrazin-2-yl)-3′-fluoro-N-(methylsulfonyl)biphenyl-2-sulfonamide] was run?
A: < 5.00

Q: How did the pIC50 turn out when CC(C)(CCO)NS(=O)(=O)c1ccccc1-c1ccc(-c2cnc(N)cn2)c(F)c1 [Example 102, 4′-(5-Aminopyrazin-2-yl)-3′-fluoro-N-(3-hydroxy-1,1-dimethylpropyl)biphenyl-2-sulfonamide] was run?
A: 7.46

Q: With CC(C)(CO)CNS(=O)(=O)c1ccccc1-c1ccc(-c2cnc(N)cn2)c(F)c1 [Example 103, 4′-(5-Aminopyrazin-2-yl)-3′-fluoro-N-(3-hydroxy-2,2-dimethylpropyl)biphenyl-2-sulfonamide] as the molecule, how does the pIC50 read?
A: 7.77

Q: How did the pIC50 turn out when C[C@@H]([C@@H](O)c1ccccc1)N(C)S(=O)(=O)c1ccccc1-c1ccc(-c2cnc(N)cn2)c(F)c1 [Example 118, 4′-(5-aminopyrazin-2-yl)-3′-fluoro-N-((1S,2S)-1-hydroxy-1-phenylpropan-2-yl)-N-methyl-[1,1′-biphenyl]-2-sulfonamide] was run?
A: 8.22

Q: How did the pIC50 turn out when CN[C@@H]1CCN(S(=O)(=O)c2ccccc2-c2ccc(-c3cnc(N)cn3)c(F)c2)C1 [Example 126, (R)-5-(3-Fluoro-2′-{[3-(methylamino)pyrrolidin-1-yl]sulfonyl}biphenyl-4-yl)pyrazin-2-amine] was run?
A: 6.24

Q: Nc1cnc(-c2ccc(-c3ccccc3S(=O)(=O)N3c4ccccc4C[C@H]3CO)cc2F)cn1 [Example 135, (S)-(1-{[4′-(5-Aminopyrazin-2-yl)-3′-fluorobiphenyl-2-yl]sulfonyl}-2,3-dihydro-1H-indol-2-yl)-methanol] was tested. Which pIC50 did it give?
A: 7.80

Q: How did the pIC50 turn out when Nc1cnc(-c2ccc(-c3ccccc3S(=O)(=O)N[C@H]3c4ccccc4C[C@H]3O)cc2F)cn1 [Example 160, 4′-(5-Aminopyrazin-2-yl)-3′-fluoro-N-((1S,2R)-2-hydroxy-2,3-dihydro-1H-inden-1-yl)-[1,1′-biphenyl]-2-sulfonamide] was run?
A: 8.30

Q: Nc1cnc(-c2ccc(-c3ccccc3S(=O)(=O)N[C@@H]3c4ccccc4C[C@@H]3O)cc2F)cn1 [Example 161, 4′-(5-Aminopyrazin-2-yl)-3′-fluoro-N-((1R,2S)-2-hydroxy-2,3-dihydro-1H-inden-1-yl)-[1,1′-biphenyl]-2-sulfonamide] was tested. Which pIC50 did it give?
A: 7.32

Q: How did the pIC50 turn out when N#CCCNS(=O)(=O)c1ccccc1-c1ccc(-c2cnc(N)cn2)c(F)c1 [Example 169, 4′-(5-Aminopyrazin-2-yl)-N-(2-cyanoethyl)-3′-fluorobiphenyl-2-sulfonamide] was run?
A: 7.64

Q: Nc1cnc(-c2ccc(-c3ccccc3S(=O)(=O)N3CCN(c4cnccn4)CC3)cc2F)cn1 [Example 176, 5-{3-Fluoro-2′-[(4-pyrazin-2-ylpiperazin-1-yl)sulfonyl]biphenyl-4-yl}pyrazin-2-amine] was tested. Which pIC50 did it give?
A: 8.00

Q: With Nc1cnc(-c2ccc(-c3ccccc3S(=O)(=O)N3CCN(c4ncccn4)CC3)cc2F)cn1 [Example 177, 5-{3-Fluoro-2′-[(4-pyrimidin-2-ylpiperazin-1-yl)sulfonyl]biphenyl-4-yl}pyrazin-2-amine] as the molecule, how does the pIC50 read?
A: 6.52

Q: How did the pIC50 turn out when Nc1cnc(-c2ccc(-c3ccccc3S(=O)(=O)NC3(CO)CCCC3)cc2F)cn1 [Example 179, 4′-(5-Aminopyrazin-2-yl)-3′-fluoro-N-[1-(hydroxymethyl)cyclopentyl]biphenyl-2-sulfonamide] was run?
A: 8.70

Q: Nc1cnc(-c2ccc(-c3ccccc3NS(=O)(=O)N3CCCC3)cc2F)cn1 [Example 181, N-[4′-(5-Aminopyrazin-2-yl)-3′-fluorobiphenyl-2-yl]pyrrolidine-1-sulfonamide] was tested. Which pIC50 did it give?
A: 6.62

Q: With Nc1cnc(-c2ccc(-c3ccccc3S(=O)(=O)N3CC[C@H](O)C3)cc2F)cn1 [Example 184, (3S)-1-{[4′-(5-Aminopyrazin-2-yl)-3′-fluorobiphenyl-2-yl]sulfonyl}pyrrolidin-3-ol trifluoroacetic acid salt] as the molecule, how does the pIC50 read?
A: 7.68

Q: How did the pIC50 turn out when CNS(=O)(=O)c1cc(C(F)(F)F)ccc1-c1ccc(-c2cnc(N)cn2)c(F)c1 [Example 208, 4′-(5-Aminopyrazin-2-yl)-3′-fluoro-N-methyl-4-(trifluoromethyl)biphenyl-2-sulfonamide] was run?
A: 7.85

Q: Nc1cnc(-c2ccc(-c3ccc(C(F)(F)F)cc3S(=O)(=O)NCCO)cc2F)cn1 [Example 210, 4′-(5-Aminopyrazin-2-yl)-3′-fluoro-N-(2-hydroxyethyl)-4-(trifluoromethyl)biphenyl-2-sulfonamide] was tested. Which pIC50 did it give?
A: 7.70

Q: CC(CO)(CO)NS(=O)(=O)c1ccccc1-c1ccc(-c2cnc(N)nc2)c(F)c1 [Example 255, 4′-(2-Aminopyrimidin-5-yl)-3′-fluoro-N-[2-hydroxy-1-(hydroxymethyl)-1-methylethyl]biphenyl-2-sulfonamide] was tested. Which pIC50 did it give?
A: 7.12

Q: With Nc1ncc(-c2ccc(-c3ccccc3S(=O)(=O)N3CCN(C4CC4)CC3)cc2F)cn1 [Example 281, 5-{2′-[(4-Cyclopropylpiperazin-1-yl)sulfonyl]-3-fluorobiphenyl-4-yl}pyrimidin-2-amine trifluoroacetic acid salt] as the molecule, how does the pIC50 read?
A: 7.36
